# Legend:
# human PTH1R = human PTH1R (Homo sapiens (Human), UniProt Q03431); assay: In vitro cAMP signal activity via the human PTH1R (HKRK-B7 cells); type: cell-based; conditions: 100 nM human PTH(1-34) = 100%; for EC20: concentration giving 20% cAMP signaling activity; for EC50: concentration giving 50% cAMP signaling activity
# Protocol: Measurement of In Vitro cAMP Signal Activity of Compounds Via the Human PTH1R
# Human PTH(1-34) and calcitonin were purchased from Peptide Institute, Inc. (Osaka, Japan), dissolved in 10 mM acetic acid to 1 mM and stored in a −80° C. freezer.
# Cells were cultured in Dulbecco's modified Eagle's medium (DMEM) supplemented with 10% fetal bovine serum (Hyclone), 100 units/ml penicillin G and 100 μg/ml streptomycin sulfate (Invitrogen Corp) at 37° C. in a humidified atmosphere containing 5% CO2.
# cAMP signal transduction analysis utilized LLC-PK1 cells not expressing the PTH1R, and HKRK-B7 cells, that is, LLC-PK1 cells overexpressing the human PTH1R at 9.5×10^5 receptors/cell (Takasu et al., J. Bone. Miner. Res. 14:11-20, 1999).
# HKRK-B7 or LLC-PK1 cells were seeded into a 96-well plate at 1×10^5 cells/well and incubated overnight. On the following day, 50 μl of cAMP assay buffer (DMEM, 2 mM IBMX, 0.2 mg/ml bovine serum albumin, 35 mM Hepes-NaOH, pH 7.4) containing human PTH(1-34) or each compound was added and the plate was placed in a 37° C. incubator. The cells were incubated for 20 minutes. After removing the medium, the cells were washed with 100 μl of cAMP assay buffer once. The plate was placed on dry ice powder to freeze the cells and then removed from the dry ice. The cells were lysed with 40 μl of 50 mM HCl and frozen again on dry ice. The amount of intracellular cAMP produced was measured using a commercially available cAMP EIA kit (Biotrack cAMP EIA system, GE health care).
# Analyses were performed using a variable gradient S-shaped dose-response curve equation.
# rat PTH1R = rat PTH1R (Rattus norvegicus (Rat), UniProt P25961); assay: In vitro cAMP signaling activity via the rat PTH1R (LLC-PK46_RATO_PTH1R cells); type: cell-based; conditions: LLC-PK46_RATO_PTH1R cells overexpressing rat PTH1R; for EC20: 20% cAMP signaling activity; for EC50: 50% cAMP signaling activity
# Sequence of rat PTH1R (P25961 27-591): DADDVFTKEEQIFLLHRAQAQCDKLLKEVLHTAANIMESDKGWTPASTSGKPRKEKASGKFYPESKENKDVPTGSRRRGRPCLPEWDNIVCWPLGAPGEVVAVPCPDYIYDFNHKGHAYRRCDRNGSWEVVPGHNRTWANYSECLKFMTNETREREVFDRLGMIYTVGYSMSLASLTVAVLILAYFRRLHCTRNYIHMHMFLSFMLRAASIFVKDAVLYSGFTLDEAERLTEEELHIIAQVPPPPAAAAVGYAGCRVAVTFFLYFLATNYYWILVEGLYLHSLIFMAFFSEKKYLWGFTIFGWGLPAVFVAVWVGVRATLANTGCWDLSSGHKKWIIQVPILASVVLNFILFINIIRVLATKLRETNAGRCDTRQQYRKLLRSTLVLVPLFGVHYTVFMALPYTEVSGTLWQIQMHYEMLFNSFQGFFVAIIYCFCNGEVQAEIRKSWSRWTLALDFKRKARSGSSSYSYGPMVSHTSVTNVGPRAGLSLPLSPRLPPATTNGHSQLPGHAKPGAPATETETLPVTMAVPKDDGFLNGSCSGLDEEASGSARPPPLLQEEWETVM
# Description: Measurement of the Compounds' In Vitro cAMP Signaling Activity Via the Rat PTH1R
# Instead of HKRK-B7 cells, LLC-PK46_RATO_PTH1R cells overexpressing rat PTH1R, which were established at Chugai Pharmaceutical, were used to take measurements in a similar manner to Test Example 1.
# [1] = Metabolic stability using human liver microsomes; type: in vitro ADME; conditions: pH 7.4; human liver microsomes 0.5 mg/mL, compound 1 μM, NADPH 1 mM, 37° C.; read-out: Clearance
# Protocol: Examination of Metabolic Stability Using Human Liver Microsomes
# In 0.1 M phosphate buffer (pH7.4), human liver microsomes were incubated with a compound or a comparative example in the coexistence of NADPH at 37° C. for a specified amount of time. The concentration of the parent compound at each reaction time was measured using LC/MS/MS, and inherent clearance (μL/min/mg protein) was calculated from the slope of the reaction time versus residual rate.
# (§1) Compound concentration: 1 μM
# Reaction time: 0, 5, 15, and 30 minutes
# [2] = Metabolic stability using rat hepatocyte; type: in vitro ADME; conditions: for hepatocyte CLint at 1 μM: rat (SD, female) hepatocytes 1×10^6 cells/mL, compound 1 μM, 37° C., read-out: Clearance; for rat hepatocyte metabolic stability compared to Comparative Examples 1, 2, 3, 5, and 6: rat hepatocytes
# Protocol: Examination of Metabolic Stability Using Rat Hepatocyte
# Liver cells were prepared from the liver of rats (SD, female) by a collagenase perfusion method. A compound of the Examples or a Comparative Example was added, and this was incubated at 37° C. for a specified amount of time, followed by addition of a reaction-stopping solution. The concentration of the parent compound at each reaction time was measured using LC/MS/MS, and inherent clearance (μL/10^6 cells/min) was calculated from the slope of the reaction time versus residual rate.
# Cell concentration: 1×10^6 cells/mL
# as §1
# Medium: Williams' medium E
# Reaction-stopping solution: acetonitrile/2-propanol (4/6, v/v)
# TPTX rat model = assay: Calcemic action in the TPTX rat model; type: in vivo; conditions: TPTX rats, oral 30 mg/kg; for change of serum Ca concentration from the Pre-value: up to 24 hours after administration; for significance of serum Ca change compared to Comparative Examples 1 and 2: p<0.05
# Protocol: Calcemic Action in the TPTX Rat Model
# Four-week old female Crl:CD(SD) rats were obtained from Charles River Japan (Atsugi Breeding Center), and were acclimated to standard laboratory conditions of 20-26° C. and 35-75% humidity for one week. The rats were given tap water and were fed ad libitum with standard rodent chow (CE-2) (CLEA Japan, Inc.) containing 1.1% calcium, 1.0% phosphoric acid, and 250 IU/100 g of vitamin D3.
# TPTX was performed on five-week old rats. Some of the individuals were subjected to sham operation (Sham). Individuals whose serum Ca concentration was less than 8 mg/dL on four days after the operation were selected for use as TPTX rats. On five days after the operation, the rats were assigned to eight TPTX groups and one Sham group (n=5, each group) based on their body weight and serum Ca concentration measured on four days after the operation. The solvent alone was orally administered to the Sham group and the TPTX-Vehicle group at a volume of 10 mL/kg. Each test article was orally administered individually to each TPTX test article group by dissolving it in a solvent at a dose of 30 mg/10 mL/kg. The solvent composition was 10% dimethylsulfoxide (Wako Pure Chemical Industries, Ltd.), 10% Cremophor EL (Sigma-Aldrich Japan LLC), 20% hydroxypropyl-β-cyclodextrin (Nihon Shokuhin Kako Co., Ltd.), glycine (Wako Pure Chemical Industries, Ltd.); and the pH was adjusted to 10. Immediately before administration of each sample, Pre-blood collection was performed, and blood collection was carried out at 2, 6, 10, and 24 hours after administration to measure the serum Ca concentration. Each blood collection was carried out from the jugular vein under isoflurane inhalation anesthesia.
# Serum Ca measurement: Serum obtained by centrifugation from the collected blood was measured by using an automatic analyzer TBA-120FR (Toshiba Medical Systems Corporation).
# For statistical analysis of the animal studies, data are shown as mean±standard error (SE). Statistical analysis were performed by unpaired test of the SAS Preclinical Package (Ver. 5.00.010720, SAS Institute Japan, Tokyo, Japan).
# Sequence of human PTH1R (Q03431 27-593): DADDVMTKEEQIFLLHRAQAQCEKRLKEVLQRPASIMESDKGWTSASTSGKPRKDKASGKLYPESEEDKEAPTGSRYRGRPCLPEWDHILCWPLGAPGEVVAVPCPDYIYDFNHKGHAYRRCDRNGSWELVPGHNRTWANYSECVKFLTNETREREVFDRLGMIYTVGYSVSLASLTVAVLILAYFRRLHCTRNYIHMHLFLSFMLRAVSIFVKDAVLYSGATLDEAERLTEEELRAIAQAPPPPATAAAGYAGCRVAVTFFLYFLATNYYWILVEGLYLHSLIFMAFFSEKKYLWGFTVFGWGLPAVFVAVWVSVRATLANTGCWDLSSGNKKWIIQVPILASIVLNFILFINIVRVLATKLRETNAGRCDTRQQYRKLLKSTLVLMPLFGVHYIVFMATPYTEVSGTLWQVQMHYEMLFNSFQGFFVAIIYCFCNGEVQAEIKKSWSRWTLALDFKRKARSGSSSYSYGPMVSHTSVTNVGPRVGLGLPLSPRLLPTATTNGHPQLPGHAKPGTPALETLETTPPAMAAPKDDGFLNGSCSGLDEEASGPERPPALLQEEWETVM
SMILES,EC20 (human PTH1R),EC50 (human PTH1R),EC20 (rat PTH1R),EC50 (rat PTH1R),microsomal CLint at 1 μM [1],hepatocyte CLint at 1 μM [2],"rat hepatocyte metabolic stability compared to Comparative Examples 1, 2, 3, 5, and 6 [2]",achievement of therapeutic target range of serum Ca concentration of 7.6 to 8.8 mg/dL (TPTX rat model),change of serum Ca concentration from the Pre-value (TPTX rat model),significance of serum Ca change compared to Comparative Examples 1 and 2 (TPTX rat model)
"Cc1cc(N2C(=O)CNC2=O)ccc1CCS(=O)(=O)N1CCC2(CC1)N=C(c1cccc(OC(F)(F)F)c1)NC2=O [Comparative Example 1, reference compound]",1.5 µM,4.8 µM,0.8 µM,2.3 µM,84 µL/min/mg,5.8 µL/min/1e6 cells,–,could not be achieved,smaller positive changes from the Pre-value,–
"Cc1cc(N2C(=O)NC(=O)C2(C)C)cc(C)c1CCS(=O)(=O)N1CCC2(CC1)N=C(c1cccc(C(F)(F)F)c1)NC2=O [Compound 6, 1-(3,5-dimethyl-4-(2-((4-oxo-2-(3-(trifluoromethyl)phenyl)-1,3,8-triazaspiro[4.5]deca-1-en-8-yl)sulfonyl)ethyl)phenyl)-5,5-dimethylimidazolidine-2,4-dione]",2.0 µM,9 µM,–,–,29 µL/min/mg,1.4 µL/min/1e6 cells,–,achieved the therapeutic target range,large positive changes from the Pre-value,–
"Cc1cc(N2C(=O)NC(=O)C2(C)C)cc(C)c1CCS(=O)(=O)N1CCC2(CC1)N=C(c1ccc(OC(F)(F)F)cc1)NC2=O [Compound 7, 1-(3,5-dimethyl-4-(2-((4-oxo-2-(4-(trifluoromethoxy)phenyl)-1,3,8-triazaspiro[4.5]deca-1-en-8-yl)sulfonyl)ethyl)phenyl)-5,5-dimethylimidazolidine-2,4-dione]",1.1 µM,4.1 µM,0.5 µM,2.4 µM,30 µL/min/mg,0.9 µL/min/1e6 cells,increased,achieved the therapeutic target range,large positive changes from the Pre-value,statistically significant

# Now from value to compound, other results behind:
EC20 (human PTH1R),EC50 (human PTH1R),EC20 (rat PTH1R),EC50 (rat PTH1R),microsomal CLint at 1 μM [1],hepatocyte CLint at 1 μM [2],"rat hepatocyte metabolic stability compared to Comparative Examples 1, 2, 3, 5, and 6 [2]",SMILES,achievement of therapeutic target range of serum Ca concentration of 7.6 to 8.8 mg/dL (TPTX rat model),change of serum Ca concentration from the Pre-value (TPTX rat model),significance of serum Ca change compared to Comparative Examples 1 and 2 (TPTX rat model)
–,–,0.4 µM,1.9 µM,35 µL/min/mg,3 µL/min/1e6 cells,increased,"Cc1cc(N2C(=O)NC(=O)C23CCCC3)cc(C)c1CCS(=O)(=O)N1CCC2(CC1)N=C(c1ccc(OC(F)(F)F)cc1)NC2=O [Compound 8, 1-(3,5-dimethyl-4-(2-((4-oxo-2-(4-(trifluoromethoxy)phenyl)-1,3,8-triazaspiro[4.5]deca-1-en-8-yl)sulfonyl)ethyl)phenyl)-1,3-diazaspiro[4.4]nonane-2,4-dione]",achieved the therapeutic target range,large positive changes from the Pre-value,statistically significant
5.0 µM,21 µM,3.0 µM,12 µM,29 µL/min/mg,0.3 µL/min/1e6 cells,increased,"Cc1cc(N2C(=O)NC(=O)C23COC3)cc(C)c1CCS(=O)(=O)N1CCC2(CC1)N=C(c1ccc(OC(F)(F)F)cc1)NC2=O [Compound 10, 5-(3,5-dimethyl-4-(2-((4-oxo-2-(4-(trifluoromethoxy)phenyl)-1,3,8-triazaspiro[4.5]deca-1-en-8-yl)sulfonyl)ethyl)phenyl)-2-oxa-5,7-diazaspiro[3.4]octane-6,8-dione]",–,–,–
1.5 µM,11 µM,0.8 µM,3.2 µM,19 µL/min/mg,–,increased,"Cc1cc(N2C(=O)NC(=O)C23CC3)cc(C)c1CCS(=O)(=O)N1CCC2(CC1)N=C(c1ccc(OC(F)(F)F)cc1)NC2=O [Compound 11, 4-(3,5-dimethyl-4-(2-((4-oxo-2-(4-(trifluoromethoxy)phenyl)-1,3,8-triazaspiro[4.5]deca-1-en-8-yl)sulfonyl)ethyl)phenyl)-4,6-diazaspiro[2.4]heptane-5,7-dione]",–,–,–

# From patent US9428505B2, “Hydantoin derivative” (Chugai Seiyaku Kabushiki Kaisha, priority 2012, dated 2016)
